Results from patent publication US10188629B2, “Prodrug of green tea epigallocatechin-3-gallate (pro-EGCG) for use in the treatment of endometriosis” (The Hong Kong Polytechnic University, priority 2012, dated 2019).

Key:
Type in all cases: in vivo, mice
[1] = tested on: endometriotic lesions (experimental endometriosis); test: Growth of luminescent endometriotic lesions monitored weekly by IVIS bioluminescence imaging
Text: Based on our previous study, an immune-compromised mouse model of experimental endometriosis was created by subcutaneous transplantation of human or mouse tissues to assess the anti-angiogenic effects and mechanisms of green tea catechin (Xu H, et al. Hum Reprod 2009; 24:608-18; Xu H, et al. Fertil Steril 2011; 96:1021-8).
(§1) In this study, endometrial tissues from eight-week-old female CMV-Luc mice (n=15) were acquired for transplantation into nonluminescent NOD-SCID mice (n=32). The mouse endometrium was obtained during the proliferating estrous stage, and biopsies 2 mm in diameter were obtained with a sterile dermal biopsy punch (Miltex, NY). The biopsies were immediately washed in prewarmed, phenol-red-free DMEM/F-12 medium (Sigma) to remove residual blood and mucus, and the samples were maintained in serum-free DMEM/F-12 medium before transplantation (Bruner-Tran K L, et al. J Clin Endocrinol Metab 2009; 94:2489-94). Cultured endometrial biopsies were randomly allocated for transplantation.
(§2) Five mouse endometrial biopsies per treatment group were implanted into a single subcutaneous pocket created is the abdominal wall of the mice along the ventral midline immediately below the umbilicus. All of the surgical procedures were performed under general anesthesia with isoflurane (Baxter, IL), and the mice were monitored until they fully recovered.
Development and angiogenesis of the experimental endometriosis were monitored using various in vivo imaging systems. During the intervention, growth of the endometriotic lesions (n=8 per group) was monitored each week by measuring the bioluminescence of the subcutaneous luciferase-positive implants using a non-invasive IVIS 200 live animal imaging system (Xenogen) as previously described (Song C, et al. Hum Gene Ther, 2011; 22:439-49). A total of 150 mg/kg of luciferin was injected intraperitoneally […] 10 mins prior to imaging. An image from each animal was captured at bin size 4 in triplicate, and the bioluminescence signal intensities were averaged for comparison.

[2] = tested on: microvessels in the endometriotic lesions; test: Angiogenesis of endometriotic lesions by Cellvizio, microCT and CD31/αSMA immunostaining; details: after 4 weeks
Protocol: (§3) At the end of intervention, functional angiogenesis of the endometriotic lesions (n=8 per group) was monitored by measuring the flow of fluorescence dye in the new microvessels developed in the implants using a Cellvizio® LAB LSU-488 system with a ProFlex Microprobe S1500 (Mauna Kea Technologies, Paris) as previously described (Xu H, et al. Fertil Steril 2011; 96:1021-8.). A total of 10 mg/ml of FITC-Dextran was injected intravenously into each mouse prior to imaging. Total vessel length (μm) and area (μm^2) and functional capillary length (μm^−1) and area density were measured using Cellvizio® LAB Vessel Detection software, and averaged from 4 perpendicular regions of the lesions in replicates. At the same time, apoptotic cells in the lesions were captured by Cellvizio-LAB 488 with a ProFlex MiniO/100 microprobe using Cellvizio® LAB I/C Viewer software (Mauna Kea Technologies). A total of 10 μl of 10 μM YO-PRO®-1 iodide in DSMO was injected into the lesion area.
After live animal imaging, structural angiogenesis in the endometriotic lesions (n=4 per group) was further examined by detecting the Microfil in the new microvessels developed in the implants using a VivaCT 40 μCT system (Scanco Medical, Switzerland) as previously described (Sun M H, et al. J Orthop Res. 2012; 30:137-43.). The mice were sacrificed by cervical dislocation and where immediately perfused with 4% paraformaldehyde and Microfil MV-120 Blue. Three-dimensional microvessel architecture was constructed, and absolute and relative Microfil-filled microvessel volumes were determined using the built-in software.
(§4) Paraffin sections (n=4 per group) were prepared for standard hematoxylin and eosin (H&E) staining, angiogenesis immunostaining and TUNEL staining as previously described (Xu H, et al. Hum Reprod 2009; 24:608-18.). Immunohistochemistry staining of in situ angiogenesis was performed by the immunoperoxidase method using a MACH 3 HRP Polymer Kit (Biocare Medical, Concord), and counterstained using methyl green or blue solution.
Antibodies against mouse CD31 and alpha-smooth muscle actin (αSMA) (Abcam Inc., MA) were used to double fluorescence stain the microvessels developed in the endometriotic lesions, and CD34 (Abeam Inc.) was used to stain the microvessels in the ovaries and uterus. The samples without primary antibodies served as negative controls. The total number of positively stained new and old microvessels in the lesions was counted, respectively. The mean microvessel numbers and sizes were calculated from 5 separated sections from each animal within the treatment group and are presented as numbers per lesion and μm^2 per lesion, respectively.

[3] = tested on: vascular endothelial growth factor (VEGF); test: VEGF concentrations in plasma and lesions by ELISA
Text: (§5) Pharmacokinetics of EGCG and pro-EGCG in the animals were studied by measuring the corresponding EGCG and pro-EGCG concentrations (EGCG in the EGCG group, pro-EGCG in the pro-EGCG group) in plasma during the intervention and also in lesions at the end of intervention. EGCG and pro-EGCG were quantified by analytical methods as previously described (Lam W H, et al. Bioorg Med Chem. 2004; 510:69-93; Chu K O, et al. J Chromat B 2004; 810:187-95; Chu K O, et al. Anal Chim Acta 2004; 510:69-76). Anti-oxidative and anti-angiogenesis capacities of the samples were also studied by measuring oxygen radical absorbance capacity (ORAC) using a modified phycoerythrin fluorescence decay assay as previously described (Wang C C, et al. Clin Chem 2004; 50:952-4), and vascular endothelial growth factor (VEGF) concentrations were measured using a commercial ELISA kit (Uscn Life Science Inc., TX) according to the manufacturer's manual. Blood samples (n=8 per group) were collected from the tail vein once per week, and plasma was prepared by immediate centrifugation. Implants without subcutaneous and muscle layers (n=4 per group) were removed from the abdominal wall, and the endometriotic lesions were frozen. All of the samples were kept in −80° C. prior to analysis.

[4] = tested on: endometriotic lesions (experimental endometriosis); test: Lesion size, weight and histology at end of intervention; details: after 4 weeks i.p. once per day
Text: as §1, §2
At the end of intervention, size of the endometriotic lesions was determined as the longest length and perpendicular width according to a venire caliper and was calculated as 0.52×width^2×length in mm^3. The endometrial implants, together with subcutaneous and muscle layers, were removed from the abdomen wall for detailed histological examination and specific staining analysis.
as §4

[5] = Oxygen radical absorbance capacity (ORAC) in plasma and lesions
Text: as §5

[6] = tested on: apoptotic cells in the endometriotic lesions; test: Apoptosis in endometriotic lesions by Cellvizio YO-PRO-1 imaging and TUNEL staining; details: after 4 weeks
Protocol: as §3
The total number of apoptotic cells was counted and averaged from the 4 perpendicular regions of the lesions in replicates as described above. Both IVIS and Cellvizio imaging procedures were performed under general anesthesia with isoflurane (Baxter, Ill.), and the mice were observed until fully recovered.
TUNEL labeling for in situ apoptotic cells was performed using an ApopTag Peroxidase In Situ Apoptosis Detection Kit (Temecula, Calif.) according to the manufacturer's instructions. The total numbers of TUNEL-positive stained cells were counted. The mean numbers of apoptotic cells were calculated from 5 separated sections from each animal within the treatment group and are presented as numbers per lesion as above. […] Each section was evaluated by both examiners, who were blinded to the experimental groups and results.

[7] = EGCG, pro-EGCG 50 mg/kg, vitamin E 20 mg/kg

vitamin E
lesion bioluminescence intensity compared with saline group ([1]; i.p. once per day, 4 weeks, EGCG, pro-EGCG 50 mg/kg, vitamin E 20 mg/kg): significantly lower than that of the saline group at the 3rd week | lesion growth (bioluminescence) at the 4th week compared with saline group ([1]; vitamin E 20 mg/kg i.p. once per day, 4th week): returned to normal growth, as in the saline group | functional capillary length, density and area in the lesions compared to saline group ([2]; Cellvizio, FITC-Dextran): but not vitamin E, significantly inhibited | total vessel length in the lesions compared to saline group ([2]; Cellvizio, FITC-Dextran): but not vitamin E, significantly inhibited | CD31-positively and αSMA-positively stained old microvessel numbers compared to saline group ([2]; immunostaining): but not vitamin E, significantly inhibited | vessel volume and density in the lesions compared to saline group ([2]; microCT, Microfil): but not vitamin E, significantly inhibited | VEGF concentrations in endometriotic lesions compared to saline group ([3]; lesions after intervention): not significantly different from the saline group | VEGF concentrations in plasma compared to saline group ([3]; plasma during intervention): not significantly different from the saline group | lesion size compared to control group [4, 7]: did not significantly decrease | lesion weight compared to control group [4, 7]: did not significantly decrease | development and histology of the endometriotic lesions ([4]; microscopic examination): a large cyst-like endometrial gland structure was formed | ORAC in endometriotic lesions compared to saline group ([5]; lesions after intervention): significantly increased | ORAC in plasma compared to saline group ([5]; plasma during intervention): significantly increased | total apoptotic cell numbers in the lesions compared to saline group [6]: but not vitamin E significantly increased
